Measurements published in US8188268B2, “Porous crystalline saccharide, its preparation and uses” (Kabushiki Kaisha Hayashibara Seibutsu Kagaku Kenkyujo, priority 2005, dated 2012).
Values joined by “and” are separate entries in the source; they are usually repeats but may differ in a detail not shown here. Identical values can stand only once. Like-named read-outs stand apart in the source and are kept apart here.

Tests used:
[1] = Specific surface area by nitrogen adsorption isotherms (BET); assay type: physicochemical; details: for Specific surface area: nitrogen adsorption isotherms, BET
Method: Specific surface area of the porous anhydrous crystalline trehalose was measured by the nitrogen adsorption isotherms using “MODEL ASAP-2400”, a specific surface area/pore size distribution analyzer commercialized by Micromeritics, Georgia, USA. […] The result was analyzed by the BET (Brunnauer, Emmet, and Teller) method. The commercial anhydrous crystalline trehalose, a reagent grade, commercialized by Hayashibara Biochemical Laboratories Inc., Okayama, Japan, was used as a control. […] Further, those pore size distribution charts are in FIG. 19. […] The results of the analysis on the specific surface area and the pore size distribution are summarized in Table 7, and the pore size distribution chart was in FIG. 24. As a control, “MALTOSE OM”, a hydrous crystalline maltose product with maltose purity of 98% or higher, produced by Hayashibara Co., Ltd., Okayama, Japan, was used.

[2] = Pore size distribution by the mercury filling method; assay type: physicochemical; details: for Median pore diameter: control maltose values are from space between particles, not pores
[3] = Oil-keeping ability with salad oil; assay type: physicochemical; set-up: key to Oil-keeping ability: (5 g salad oil / g saccharide added at endpoint) x 100; details: for Oil-keeping ability: (5 g salad oil / amount of added saccharide) x 100
Method: The oil-keeping ability of each crystalline saccharide was measured using the porous anhydrous crystalline trehalose prepared by treating at 70° C. for 60 min in Example 1, the control hydrous crystalline trehalose, and the control anhydrous crystalline trehalose as crystalline trehalose samples; and the porous anhydrous crystalline maltose prepared by the method in Example 3, the control hydrous crystalline β-maltose, and the control anhydrous crystalline α-maltose, and the control anhydrous crystalline β-maltose as crystalline maltose samples, and the results were compared.
The measurement of the oil-keeping ability of the crystalline saccharide was carried out according to the method disclosed in Japanese Patent Kokai No. 31,650/84. Five grams of “NISSHIN SALAD OIL”, a salad oil commercialized by Nisshin OiliO Group, Ltd., Tokyo, Japan, was placed in a 50-ml plastic container, and then gradually admixed with each powdery crystalline saccharide with stirring. […] When the amount of the mixed saccharide is further increased, the agglomerate increase in solidity and then loosen. The point that the agglomerate is loosened is estimated to be the endpoint and the oil-keeping ability was calculated using the following formula. Oil-Keeping Ability =(The amount of salad oil(5 g)/the amount of added PCS*)×100 *: Powdery crystalline saccharide tm Formula 1

[4] = Preservation test of flax seed oil powder, volatile aldehydes by GC; assay type: physicochemical; details: flax seed oil powder with this base
Method: As disclosed in Japanese Patent Kokai No. 123,195/2001 applied for by the same applicant of the present invention, it has been known that trehalose inhibits the decomposition of fatty acids and the formation of volatile aldehydes. Therefore, a preservation test of the flax seed oil powders were carried out according to the following method by using the flax seed oil powders prepared in Example 9 by using the porous anhydrous crystalline trehalose of the present invention or the control anhydrous crystalline trehalose as powderizing bases, and the amounts of the formed volatile aldehydes were compared.
One gram each of the flax seed oil powder was put into two 20 ml-vial, sealed with Butyl-rubber stopper, and then preserved in an incubator at 40° C. for three weeks. The vial was collected at the point of before the preservation or after preserving for 21 days and heated at 80° C. for 5 min. Then, 2 ml of vapor phase gas in the vial was directly subjected to gas chromatography (GC) analysis to determine the amount of volatile aldehydes. GC analysis was carried out according to the following conditions.
• Gas chromatograph: GC-17B, produced by Shimadzu Corporation, Kyoto, Japan; • Column: TC-FFAP capillary column (ID 0.52 mm×30 m), produced by GL Sciences Inc., Tokyo, Japan; • Column temperature: 40° C. to 100° C.

[5] = Dissolution test against cold water at 10° C.; assay type: physicochemical; details: for Time required for dissolution, No. 1 / Time required for dissolution, No. 2 / Time required for dissolution, No. 3 / Time required for dissolution, No. 4 / Time required for dissolution, No. 5 / Time required for dissolution, Average: 20 ml water 10° C., about 300 rpm, 0.5 g trehalose or 0.2 g maltose; for Time required for dissolution, Average: average of 5
Method: A dissolution test against cold water at 10° C. was carried out using the porous anhydrous crystalline trehalose prepared by treating at 70° C. for 60 min in Example 1, the porous anhydrous crystalline maltose prepared by the method in Example 3, and the porous hydrous crystalline maltose prepared by the method in Example 5, as samples. The results were compared with those of the controls, anhydrous crystalline trehalose, hydrous crystalline trehalose, and hydrous crystalline maltose.
Twenty milliliters of 10° C.-cold water was placed in a test tube with an internal diameter of 18 mm, and then stirred using a stirring bar. A crystalline saccharide sample was put into the test tube, and the time required for the complete dissolution (for the disappearance of precipitate particles) was measured. The amount of samples was set to be 0.5 g in the case of trehalose and to be 0.2 g in the case of maltose, and the stirring rate was set to be about 300 rpm in any case. The measurement of time for dissolution under the above conditions was carried out 5-times at each sample.

[6] = Flax seed oil powder: keeping of powdery form; assay type: physicochemical; details: 1 part flax seed oil + 10 parts saccharide as base
Method: One part by weight of flax seed oil was admixed with 10 parts by weight of the porous anhydrous crystalline trehalose, prepared by treating at 70° C. for 60 min in Example 1, and then the mixture was kneaded to make into a powdery product. In the same manner, powdery products were prepared by using “TREHA®”, hydrous crystalline trehalose commercialized by Hayashibara Shoji Inc., Okayama, Japan, and anhydrous crystalline trehalose, prepared from hydrous crystalline trehalose by drying in vacuo at a high temperature according to the conventional method, as controls. […] The flaxseed oil powder can be preferably used as a supplement.

[7] = Crystal moisture content (Karl Fischer) on moisture absorption and drying; assay type: physicochemical
Method: Hydrous crystalline saccharides were prepared from the respective porous anhydrous crystalline saccharide using the porous anhydrous crystalline trehalose, obtained by treating at 70° C. for 60 min in Example 1, and the porous anhydrous crystalline maltose, obtained by treating at 70° C. for 480 min in Example 3, as materials. About 50 g of the porous anhydrous crystalline saccharide and about 150 ml of deionized water were placed in respective container. Then, the both open containers were placed in the same closed vessel and leaved to stand at 27° C. for two days. By the treatment, the anhydrous crystalline saccharide was allowed to absorb moisture and converted into hydrous crystal. The resulting hydrous crystal was dried in a drying machine at 50° C. for one hour to remove excess moisture. The moisture contents of the porous anhydrous crystalline trehalose and the porous anhydrous crystalline maltose before and after the treatment to absorb moisture and after drying are in Table 6. The moisture content of crystals was measured by the conventional Karl Fischer's method.

[8] = background art; cited from earlier work
[9] = listed as control anhydrous crystalline trehalose
[10] = 21 days after preservation at 40° C.
[11] = listed as Porous anhydrous crystalline trehalose (Present invention)
[12] = 21 days after preservation at 40° C., listed as Porous anhydrous crystalline trehalose (Present invention)
[13] = before preservation, listed as Porous anhydrous crystalline trehalose (Present invention)

OC[C@H]1O[C@H](O[C@H]2O[C@H](CO)[C@@H](O)[C@H](O)[C@H]2O)[C@H](O)[C@@H](O)[C@@H]1O [Anhydrous crystalline trehalose (Control)] [α-D-glucosyl α-D-glucoside, reference compound]
Specific surface area ([1]; listed as Anhydrous crystalline trehalose (Conventional product, Control)): 0.465 m^2/g
Intrusion volume [2]: 0.03 mL/g
Mode pore diameter [2]: 0.46 μm
Median pore diameter [2]: 0.40 μm
Intrusion volume [2, 9]: 0.03 mL/g
Oil-keeping ability [3]: 38.5
Oil-keeping ability [3, 9]: 38.5
2,4-Decadienal [4, 10]: 7.01 μg/ml-vapor phase gas
2-Heptenal [4, 10]: 0.01 μg/ml-vapor phase gas
2-Hexenal [4, 10]: 0.02 μg/ml-vapor phase gas
2-Nonenal [4, 10]: 0.27 μg/ml-vapor phase gas
2-Octenal [4, 10]: 0.66 μg/ml-vapor phase gas
Acetoaldehyde [4, 10]: 8.99 μg/ml-vapor phase gas
Butanal [4, 10]: 0.93 μg/ml-vapor phase gas
Hexanal [4, 10]: 0.16 μg/ml-vapor phase gas
Pentanal [4, 10]: 0.55 μg/ml-vapor phase gas
Propanal [4, 10]: 12.98 μg/ml-vapor phase gas
Total aldehydes [4, 10]: 31.58 μg/ml-vapor phase gas
2,4-Decadienal ([4]; before preservation): 6.77 μg/ml-vapor phase gas
2-Heptenal ([4]; before preservation): 0.00 μg/ml-vapor phase gas
2-Hexenal ([4]; before preservation): 0.00 μg/ml-vapor phase gas
2-Nonenal ([4]; before preservation): 0.01 μg/ml-vapor phase gas
2-Octenal ([4]; before preservation): 0.23 μg/ml-vapor phase gas
Acetoaldehyde ([4]; before preservation): 8.91 μg/ml-vapor phase gas
Butanal ([4]; before preservation): 0.66 μg/ml-vapor phase gas
Hexanal ([4]; before preservation): 0.07 μg/ml-vapor phase gas
Pentanal ([4]; before preservation): 0.13 μg/ml-vapor phase gas
Propanal ([4]; before preservation): 10.24 μg/ml-vapor phase gas
Total aldehydes ([4]; before preservation): 27.02 μg/ml-vapor phase gas
Time required for dissolution, No. 1 [5]: 90 s
Time required for dissolution, No. 2 [5]: 87 s
Time required for dissolution, No. 3 [5]: 96 s
Time required for dissolution, No. 4 [5]: 91 s
Time required for dissolution, No. 5 [5]: 86 s
Time required for dissolution, Average [5]: 90 s
Powdery form of flax seed oil powder [6, 9]: could not keep powdery forms

OC[C@H]1O[C@H](O[C@H]2O[C@H](CO)[C@@H](O)[C@H](O)[C@H]2O)[C@H](O)[C@@H](O)[C@@H]1O [Porous anhydrous crystalline trehalose (treated at 70° C. fo] [α-D-glucosyl α-D-glucoside]
Specific surface area relative to control crystalline saccharide ([1]; compared with control(s)): ≥ 5 folds
Specific surface area [1]: 2.513 m^2/g
Intrusion volume [2]: 0.28 mL/g
Mode pore diameter [2]: 0.20 μm
Pore diameter of clear peak in pore size distribution chart [2]: less than 5 μm
Remarks (pores) [2]: Having clear pores
Median pore diameter [2]: 0.29 μm
Intrusion volume ([2]; listed as porous anhydrous crystalline trehalose): 0.22 mL/g and 0.28 mL/g
Oil-keeping ability [3]: 62.5
Oil-keeping ability [3, 11]: 62.5
Oil-keeping ability relative to control ([3]; compared with control crystalline saccharide): about 1.6 folds
Crystal moisture content, after drying ([7]; after moisture absorption and drying at 50° C. for one hour): 9.66 %, w/w
Crystal moisture content, before treatment ([7]; before moisture absorption): 0.24 %, w/w
Crystal moisture content, after treatment ([7]; closed vessel with water, 27° C., two days): 10.32 %, w/w
2-Heptenal [4, 10]: 0.01 μg/ml-vapor phase gas
2,4-Decadienal [4, 12]: 4.01 μg/ml-vapor phase gas
2-Hexenal [4, 12]: 0.01 μg/ml-vapor phase gas
2-Nonenal [4, 12]: 0.19 μg/ml-vapor phase gas
2-Octenal [4, 12]: 0.43 μg/ml-vapor phase gas
Acetoaldehyde [4, 12]: 3.77 μg/ml-vapor phase gas
Butanal [4, 12]: 0.63 μg/ml-vapor phase gas
Hexanal [4, 12]: 0.11 μg/ml-vapor phase gas
Pentanal [4, 12]: 0.33 μg/ml-vapor phase gas
Propanal [4, 12]: 8.66 μg/ml-vapor phase gas
Total aldehydes [4, 12]: 18.15 μg/ml-vapor phase gas
2-Heptenal ([4]; before preservation): 0.00 μg/ml-vapor phase gas
2-Hexenal ([4]; before preservation): 0.00 μg/ml-vapor phase gas
2,4-Decadienal [4, 13]: 3.66 μg/ml-vapor phase gas
2-Nonenal [4, 13]: 0.00 μg/ml-vapor phase gas
2-Octenal [4, 13]: 0.11 μg/ml-vapor phase gas
Acetoaldehyde [4, 13]: 4.13 μg/ml-vapor phase gas
Butanal [4, 13]: 0.43 μg/ml-vapor phase gas
Hexanal [4, 13]: 0.00 μg/ml-vapor phase gas
Pentanal [4, 13]: 0.09 μg/ml-vapor phase gas
Propanal [4, 13]: 5.77 μg/ml-vapor phase gas
Total aldehydes [4, 13]: 14.19 μg/ml-vapor phase gas
Time required for dissolution, No. 1 [5, 11]: 29 s
Time required for dissolution, No. 2 [5, 11]: 34 s
Time required for dissolution, No. 3 [5, 11]: 40 s
Time required for dissolution, No. 4 [5, 11]: 29 s
Time required for dissolution, No. 5 [5, 11]: 31 s
Time required for dissolution, Average [5, 11]: 33 s
Dissolution in cold water in comparison with controls ([5]; cold water 10° C.): rapidly dissolved in cold water
Powdery form of flax seed oil powder [6]: kept good powdery form

OC[C@H]1O[C@@](CO)(O[C@H]2O[C@H](CO)[C@@H](O)[C@H](O)[C@H]2O)[C@@H](O)[C@@H]1O [granulated sugar, sucrose]
Specific surface area [8]: about 0.1 m^2/g
